Experimental findings from patent US10040783B2 (Emory University, priority 2011, dated 2018) are described below.

pEC50: −log10 of the molar value. “Also recorded” adds a separate entry of the source.

Data set [1] addresses T1, EP2 receptor (Homo sapiens, UniProt P43116). Put plainly: Butaprost-induced cAMP accumulation in PC3 cells. To be noted: concentration-dependent. Also noted: PC3 cells express a substantially higher level of EP2 than DU145 and LNCap cells; endogenous in cells; host or cells: PC3 cells. It counts as cell-based. An excerpt:
(§1) PGE2/EP2 signaling has been recognized to play important roles in mediating tumor progression and tumor-associated angiogenesis.

The target in data set [2] is T1, EP2 receptor. Put plainly: Schild regression of PGE2-induced EP2 activation in C6G-EP2 cells. It counts as cell-based. Also noted: expressed in transfected cells; host or cells: C6G-EP2 cells. The note with it: for Kb: additional compounds tables, read-out: EP2 KB. The protocol: Information on the modality of antagonism can be obtained by performing Schild regression analysis characterized by: log (dr−1)=log XB−log KB. In the equation, dose ratio (dr)=fold shift in EC50, XB=[antagonist], KB=equilibrium dissociation constant for the antagonist-receptor complex. […] Thus, a lower KB value indicates a higher inhibitory potency.
To perform the Schild regression, C6G-EP2 cells were incubated first with vehicle, 0.01, 0.1 or 1 μM of test compound for 5 minutes, then with increasing concentrations of PGE2 to activate the EP2 receptor.

The subject of data set [3] is rat primary hippocampal cultures. Kind of data set: NMDA-induced LDH release (excitotoxicity) in primary hippocampal cultures. It counts as cell-based. From the text: Excitotoxicity caused by NMDA receptor activation is recognized to induce neuronal apoptosis both in vitro and in vivo in cortical neurons. NMDA receptor activation can, via COX-2, cause prostaglandin production, including PGE2. Activation of the EP2 receptor by PGE2 in microglia can promote neuroinflammation in several models of neurodegenerative diseases. The effect of EP2 antagonist compounds were examined on NMDA-induced excitotoxicity. Rat primary hippocampal cultures (DIV13-15) were preincubated with vehicle or increasing concentrations of test compound for 15-20 min, followed by treatment with NMDA (30 μM) plus glycine (10 μM) overnight in continued presence of the test compound. Lactate dehydrogenase (LDH) release was used as the measure of neuronal injury.

Data set [4] in a line: in vitro. The note with it: rat.
In data set [5] the test system is PC3 cells. Put plainly: MTT cell proliferation assay, butaprost-promoted growth. It is filed as cell-based.
Description: as §1

The test system of data set [6] is PC3 cells. Kind of data set: Cell invasion across Matrigel-coated filter. It is filed as cell-based. To be noted: for Effect on PC3 cell invasion (cells moved across Matrigel-coated filter): butaprost 1 μM.
Description: as §1

The subject of data set [7] is iNOS, COX-2, IL-1β and IL-6 expression. Put plainly: qRT-PCR of inflammatory mediators in microglia-enriched cultures. It is filed as cell-based, rat. From the text:
Nitric oxide (NO) synthesized by iNOS and prostaglandins produced by COX-2 are effectors of neurotoxicity and neuroinflammation, thus, these two inducible enzymes have been recognized as inflammatory mediators produced in activated microglia. As the dominant enzymatic product of COX-2, PGE2 therefore might play a role in microglia-mediated neuroinflammation and neurodegeneration.

The target of data set [8] is T2, human DP1 receptors (Homo sapiens, UniProt Q13258).
T2 construct: expressed in transfected cells
T2 sequence (Q13258 1-359): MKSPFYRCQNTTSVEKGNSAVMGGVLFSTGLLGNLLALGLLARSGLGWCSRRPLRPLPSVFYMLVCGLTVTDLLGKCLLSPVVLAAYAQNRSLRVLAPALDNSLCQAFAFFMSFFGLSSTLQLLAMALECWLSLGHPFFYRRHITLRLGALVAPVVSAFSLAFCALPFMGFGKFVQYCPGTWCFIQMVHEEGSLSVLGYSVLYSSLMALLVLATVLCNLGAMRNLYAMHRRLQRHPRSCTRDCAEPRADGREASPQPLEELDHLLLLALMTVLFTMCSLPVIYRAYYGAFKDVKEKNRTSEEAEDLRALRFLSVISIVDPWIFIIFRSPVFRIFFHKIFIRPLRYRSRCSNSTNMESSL
Kind of data set: DP1 assay: BW245C-induced cAMP, TR-FRET, in C6G cells expressing DP1. It is filed as cell-based. To be noted: agonist BW245C. On the procedure:
DP1 Assay Both DP1 and EP2 receptors are positively coupled through Gαs to cAMP production and conduct very similar physiological and pathological events. Among the eight canonical prostanoid receptors, DP1 has similarities to EP2 at both protein and DNA level. C6G cells that stably expressing human DP1 receptors were seeded into 384-well plates in 30 μL complete medium (4,000 cells per well) and grown overnight. The medium was thoroughly withdrawn and 10 μL HBSS (HyClone) plus 20 μM rolipram were added into the wells to block phosphodiesterase. […] The cells were lysed in 10 μL lysis buffer containing the FRET acceptor cAMP-d2 and 1 min later another 10 μL lysis buffer with anti-cAMP-Cryptate was added. […] The FRET signal is expressed as F665/[…].

For data set [9], the system named is rat microglia-enriched cultures. Kind of data set: LDH release in microglia-enriched cultures. It is filed as cell-based. To be noted: 10 μM, overnight, basal. The protocol:
Microglia are the initial and major mediators of neuroinflammation and neurodegeneration in various models of neurological disorders. EP2 receptor has been reported to regulate microglial activation and subsequent neurotoxicity in several animal models. The effects of EP2 activation in microglia were investigated. Rat microglia-enriched cultures were incubated with vehicle, butaprost, or compound A1 overnight. The cellular viability was evaluated by measuring Lactate dehydrogenase (LDH) release.

T1 sequence (P43116 whole entry): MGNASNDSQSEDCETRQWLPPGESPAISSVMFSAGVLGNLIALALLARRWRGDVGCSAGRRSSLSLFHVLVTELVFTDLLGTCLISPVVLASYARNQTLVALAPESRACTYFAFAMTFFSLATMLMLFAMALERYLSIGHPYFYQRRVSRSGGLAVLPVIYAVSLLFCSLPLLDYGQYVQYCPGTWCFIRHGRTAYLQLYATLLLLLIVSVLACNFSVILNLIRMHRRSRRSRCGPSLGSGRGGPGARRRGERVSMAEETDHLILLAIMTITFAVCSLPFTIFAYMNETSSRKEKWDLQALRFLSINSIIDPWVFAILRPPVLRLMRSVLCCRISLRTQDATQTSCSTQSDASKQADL

Turning to `COc1cc(C=CC(=O)NCCn2c(C)cc3ccccc32)cc(OC)c1OC` [A1, N-(2-(2-methyl-1H-indol-1-yl)ethyl)-3-(3,4,5-trimethoxyphenyl)acrylamide], in data set [1], the “Inhibition of butaprost-induced EP2 receptor activation” value is “robust competitive inhibition”. The same compound returned a Schild plot slope in data set [2] (C6G-EP2 cells, PGE2) of 1.0. Also, in [2] (Schild plots), the “Modality of antagonism on EP2 receptor” value is “competitive antagonism”. In data set [3] (Rattus norvegicus, 0.01 μM compound, NMDA 30 μM plus glycine 10 μM overnight, read-out: NMDA-induced LDH release, % of control), the activity at 0.01 µM was found to be 94%. In addition, the activity at 0.1 µM in data set [3] (Rattus norvegicus, 0.1 μM compound, NMDA 30 μM plus glycine 10 μM overnight, read-out: NMDA-induced LDH release, % of control) worked out at 87.8%. In data set [3] (Rattus norvegicus, 1 μM compound, NMDA 30 μM plus glycine 10 μM overnight, read-out: NMDA-induced LDH release, % of control), the activity at 1 µM worked out at 73.9%. The activity at 10 µM in data set [3] (Rattus norvegicus, 10 μM compound, NMDA 30 μM plus glycine 10 μM overnight, read-out: NMDA-induced LDH release, % of control) is 50.8%. The pEC50 in data set [3] (rat hippocampal cultures, read-out: EC50 for the reduction of NMDA-induced LDH release) was 6.10. In data set [4], this compound had a CC50 of 172 µM. The “Effect on butaprost-induced PC3 cell growth” value in data set [5] (concentration-dependent) is given as “attenuated”. Also, in data set [6] (cotreatment 1 μM with butaprost 1 μM), the “Effect on PC3 cell invasion promoted by EP2 activation” value was “inhibited; also recorded: blocked”. In addition, in [7] (0.1-10 μM, concentration-dependent), the “Effect on butaprost-induced upregulation of inflammatory mediators” value is listed as “inhibited; also recorded: attenuated”.

As for `CC(=O)Nc1ccc(C(=O)NCCn2c(C)cc3ccccc32)cc1` [TG7-117, 4-acetamido-N-(2-(2-methyl-1H-indol-1-yl)ethyl)benzamide], the Kb worked out at 5.83 µM in data set [8] and 0.083 µM in data set [2].

For `Cc1cc(/C=C/C(=O)NCCn2c(C)cc3ccccc32)cc(C)c1F` [TG7-98, 3-(4-fluoro-3,5-dimethylphenyl)-N-(2-(2-methyl-1H-indol-1-yl)ethyl)acrylamide], the Kb stood at 0.745 µM in data set [8] and 0.0044 µM in data set [2].

With `CCCC1([C@H](O)C/C=C/[C@H]2[C@H](O)CC(=O)[C@@H]2CCCCCCC(=O)OC)CCC1` [butaprost], the “LDH release compared to control” value in [9] is reported as 138%. Besides, in data set [5], the Concentration giving maximal response of PC3 cell growth came out at 1 µM and the “Effect of EP2 activation on PC3 cell growth” value was “promoted PC3 cell growth”. The “Effect on PC3 cell invasion (cells moved across Matrigel-coated filter)” value in data set [6] is on record as “promoted cell invasion”. The “Effect on PC3 cell invasion (cells moved across Matrigel-coated filter)” value in data set [6] (listed as Butaprost) is recorded as “significantly increased”. In [7] (butaprost 1 μM, qRT-PCR), this compound showed a COX-2 expression increase of 16.3 fold, an IL-1β expression increase of 1.8 fold, an IL-6 expression increase of 11.1 fold and an iNOS expression increase of 3.4 fold.

Take `COc1ccc(C(=O)NCCn2c(C)cc3ccccc32)cc1OC` [TG7-112-2, 3,4-dimethoxy-N-(2-(2-methyl-1H-indol-1-yl)ethyl)benzamide]: in [8], the Kb was 1.43 µM.

On to `COc1ccc(/C=C/C(=O)NCCc2c(C)[nH]c3ccccc23)cc1OC` [TG7-76], for which the Kb in [8] amounted to 0.227 µM; in data set [2], 0.006 µM.

Turning to `COc1cc(/C=C/C(=O)NCCc2c(C)[nH]c3ccccc23)cc(OC)c1OC` [TG7-74], the Kb in data set [8] turned out to be 0.112 µM; in [2] it was 0.0029 µM.
